Results: PMC7357040, “Strategy for Designing Selective Lysosomal Acid α-Glucosidase Inhibitors: Binding Orientation and Influence on Selectivity” (Molecules, 2020)

Tests used:
[1] = molecular target: T1, lysosomal acid α-glucosidase (GAA) (Homo sapiens, UniProt P10253); test: Lysosomal acid α-glucosidase (GAA) inhibition assay, Myozyme as enzyme source, 4-methylumbelliferyl-α-D-glucopyranoside substrate; type: biochemical; details: for IC50: Myozyme, pH 6.8, 37 °C 30 min; for Selectivity Index ER α-Glcase II/GAA: ratio of IC50 ER α-glucosidase II / IC50 GAA
T1 construct: purchased Genzyme
Experimental: (§1) The inhibitory activity toward lysosomal acid α-glucosidase (GAA) was measured with Myozyme (Genzyme; Boston, MA, USA) as the enzyme source, and 4-methylumbelliferyl-α-D-glucopyranoside (Sigma-Aldrich Co.; St. Louis, Mo, USA) as substrate. The reaction mixture consisted 100 mM McIlvaine buffer (pH 6.8), 0.25% sodium taurocholate and 0.1% Triton X-100 (Nacalai Tesque Inc.; Kyoto, Japan), and the appropriate amount of enzyme. The reaction mixture was pre-incubated at 0 °C for 45 min, and the reaction was started by the using 4 mM substrate solution, followed by incubation at 37 °C for 30 min. The reaction was stopped by the addition of 1.6 mL of the solution of 400 mM Glycine-NaOH solution (pH 10.6). The released 4-methylumbelliferone was measured (excitation 362 nm, emission 450 nm) with a F-4500 fluorescence spectrophotometer (Hitachi, Tokyo, Japan). ER α-glucosidase II was prepared from the rat liver according to the method of Hino et al.. For ER α-glucosidase II activities, 4-nitrophenyl-α-D-glucopyranoside (Sigma-Aldrich Co.; St. Louis, MO, USA) was used as substrate. The reaction mixture contained phosphate buffer (pH 6.8), 0.25% sodium taurocholate, and the appropriate amount of enzyme. The reaction mixture was pre-incubated at 0 °C for 30 min, and the reaction was started by the using 4 mM substrate solution, followed by incubation at 37 °C for 30 min. The reaction was stopped by adding 0.4 mL of 400 mM Na2CO3. The released p-nitrophenol was measured spectrometrically at 400 nm.

ER α-glucosidase II = molecular target: T2, ER α-glucosidase II (Rattus norvegicus, UniProt A0A8I6GFL3); test: ER α-glucosidase II inhibition assay, enzyme prepared from rat liver, 4-nitrophenyl-α-D-glucopyranoside substrate; type: biochemical; details: for IC50: rat liver enzyme, pH 6.8, 37 °C 30 min, read-out: IC50 ER α-Glcase II
T2 construct: ER α-glucosidase II was prepared from the rat liver; from tissue; host or cells: rat liver
Experimental: as §1

[2] = molecular target: T1, lysosomal acid α-glucosidase (GAA); test: In vitro thermostability of GAA at 47 °C, remaining enzyme activity; type: biochemical; details: 10 µM compound, pH 6.8, incubation 60 min
Experimental: GAA was incubated in 100 mM McIlvaine buffer (pH 6.8) containing 0.25% sodium taurocholate and 0.1% Triton X-100 for 0, 20, 40, and 60 min, and the remaining enzyme activity was determined with 4-methylumbelliferl-α-D-glucopyranoside as substrate. The enzyme activity was 83% lost within 60 min under incubation without test samples, while the incubation with α-1-C-heptyl-LAB effectively stabilized GAA. The enzyme activity remained over 94% even under the incubation for 60 min in the presence of 10 µM α-1-C-heptyl-LAB (Figure 8). […] In contrast, 10 µM α-1-C-ethyl-LAB could not sufficiently protect the enzyme activity (50% activity remained at 60 min).
GAA was incubated at 47 °C in 100 mM sodium citrate buffer (pH 6.8) containing 1 mg/mL of bovine serum albumin (BSA) at various incubation times with or without iminosugars. Each value represents the mean ± SEM (n = 3).
The enzyme GAA was incubated at 47 °C in 100 mM McIlvaine buffer (pH 6.8) containing 0.25% sodium taurocholate and 0.1% Triton X-100 for 0, 20, 40, and 60 min. After incubation, the remaining GAA activity was assayed immediately using 4 mM 4-methylumbelliferyl-α-D-glucopyranoside as substrate.

[3] = molecular target: lysosomal α-galactosidase A; set-up: method as in PMID 15771446; details: Figure 1; cited from earlier work
Jack bean α-mannosidase = molecular target: Jack bean α-mannosidase; set-up: method as in PMID 15771446; details: Figure 1; cited from earlier work

T2 sequence (A0A8I6GFL3 33-944): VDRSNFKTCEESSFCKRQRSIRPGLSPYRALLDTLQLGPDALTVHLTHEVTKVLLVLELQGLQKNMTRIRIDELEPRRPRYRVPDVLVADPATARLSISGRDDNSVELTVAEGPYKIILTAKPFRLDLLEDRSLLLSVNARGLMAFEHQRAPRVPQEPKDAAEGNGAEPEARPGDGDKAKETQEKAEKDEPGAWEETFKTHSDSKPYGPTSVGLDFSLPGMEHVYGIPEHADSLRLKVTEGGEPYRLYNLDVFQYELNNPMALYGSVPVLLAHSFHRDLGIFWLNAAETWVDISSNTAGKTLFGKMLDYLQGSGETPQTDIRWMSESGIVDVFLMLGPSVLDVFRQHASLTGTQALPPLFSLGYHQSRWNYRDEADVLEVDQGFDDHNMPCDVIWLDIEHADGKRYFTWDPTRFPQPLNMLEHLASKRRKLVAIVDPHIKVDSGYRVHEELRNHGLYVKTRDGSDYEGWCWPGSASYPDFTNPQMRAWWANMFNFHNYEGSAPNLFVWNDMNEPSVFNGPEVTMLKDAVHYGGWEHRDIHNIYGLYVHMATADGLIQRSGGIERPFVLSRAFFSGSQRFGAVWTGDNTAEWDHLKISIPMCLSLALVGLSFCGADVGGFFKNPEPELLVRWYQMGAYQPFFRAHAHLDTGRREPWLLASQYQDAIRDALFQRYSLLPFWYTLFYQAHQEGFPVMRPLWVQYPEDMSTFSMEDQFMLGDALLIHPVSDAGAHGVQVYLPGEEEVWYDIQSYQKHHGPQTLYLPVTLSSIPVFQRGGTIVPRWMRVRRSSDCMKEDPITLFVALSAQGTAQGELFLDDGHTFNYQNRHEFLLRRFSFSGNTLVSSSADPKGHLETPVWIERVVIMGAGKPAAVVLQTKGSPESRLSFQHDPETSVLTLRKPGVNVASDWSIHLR

With CCCCCC[C@@H]1N[C@@H](CO)[C@H](O)[C@H]1O [α-1-C-Hexyl-LAB] the IC50 [1] was 0.71 ± 0.029 µM, the “Selectivity Index ER α-Glcase II/GAA” value [1] was 140.8 and the IC50 (ER α-glucosidase II) was 100 ± 6.2 µM.

With CCCCC[C@@H]1N[C@@H](CO)[C@H](O)[C@H]1O [α-1-C-Pentyl-LAB] the IC50 [1] was 1.1 ± 0.088 µM, the “Selectivity Index ER α-Glcase II/GAA” value [1] was 163.6 and the IC50 (ER α-glucosidase II) was 180 ± 19 µM.

Work on OC[C@H]1NC[C@H](O)[C@@H](O)[C@@H]1O [DNJ, 1,5-Dideoxy-1,5-imino-D-glucitol, reference compound] yielded an IC50 (ER α-glucosidase II) of 8 ± 0.55 µM.

With CC[C@@H]1N[C@@H](CO)[C@H](O)[C@H]1O [α-1-C-Ethyl-LAB] the IC50 [1] was 11 ± 1.1 µM, the “Selectivity Index ER α-Glcase II/GAA” value [1] was 49.2 and the “Inhibition of GAA, fold lower than LAB” value ([1]; relative to LAB) was 21 fold. The IC50 (ER α-glucosidase II) was 541 ± 26 µM, the “Inhibition of ER α-glucosidase II, fold weaker than LAB” value (ER α-glucosidase II; relative to LAB) was 193 fold and the “GAA enzyme activity remained” value [2] was 50%.

In the case of OC[C@H]1NC[C@H](O)[C@@H](O)[C@H]1O [DGJ, 1,5-dideoxy-1,5-imino-D-galactitol], the IC50 [3] is given as 0.07 µM.

For OC[C@H]1NC[C@@H](O)[C@@H](O)[C@@H]1O [DMJ, 1,5-dideoxy-1,5-imino-D-mannitol], the IC50 (Jack bean α-mannosidase) is listed as 774 µM.

In the case of OC[C@@H]1NC[C@H](O)[C@H]1O [LAB, 1,4-Dideoxy-1,4-imino-L-arabinitol], the “Inhibition potency of GAA, times weaker than DNJ” value ([1]; relative to DNJ) is reported as 3.5 times, the IC50 (ER α-glucosidase II) is reported as 2.8 ± 0.22 µM and the “GAA enzyme activity remained” value [2] is reported as 89%.

For CCCCCCC[C@@H]1N[C@@H](CO)[C@H](O)[C@H]1O [α-1-C-Heptyl-LAB, α-1-C-heptyl-1,4-dideoxy-1,4-imino-L-arabinitol], the IC50 [1] was 0.44 ± 0.044 µM, the “Selectivity Index ER α-Glcase II/GAA” value [1] was 168.2 and the “Selectivity index, fold better relative to the parent LAB” value ([1]; relative to LAB) was 31 fold. The IC50 (ER α-glucosidase II) was 74 ± 3.7 µM and the “GAA enzyme activity remained” value [2] was “over 94%”.

With CCCC[C@@H]1N[C@@H](CO)[C@H](O)[C@H]1O [α-1-C-Butyl-LAB] the IC50 [1] was 1.6 ± 0.04 µM, the “Selectivity Index ER α-Glcase II/GAA” value [1] was 142.5 and the IC50 (ER α-glucosidase II) was 228 ± 13 µM.

In the case of CCC[C@@H]1N[C@@H](CO)[C@H](O)[C@H]1O [α-1-C-Propyl-LAB], the IC50 [1] is reported as 7.4 ± 0.31 µM, the “Selectivity Index ER α-Glcase II/GAA” value [1] is reported as 55.8 and the IC50 (ER α-glucosidase II) is reported as 413 ± 50 µM.

In the case of C[C@@H]1N[C@@H](CO)[C@H](O)[C@H]1O [α-1-C-Methyl-LAB], the IC50 [1] is reported as 2 ± 0.12 µM, the “Selectivity Index ER α-Glcase II/GAA” value [1] is reported as 13.0 and the IC50 (ER α-glucosidase II) is reported as 26 ± 2 µM.
